Data taken from patent US5591711A, “L-lysyl-glycyl-L-histidine and therapeutic agent for wound healing containing the same” (Hoechst Japan Limited, priority 1994, dated 1997).
Peptide text beside a SMILES is read from it.

Test system: Balb/3T3 cells
Test: Fibroblast proliferation promoting activity (3H-thymidine incorporation)
Format: cell-based
Conditions: Balb/3T3 fibroblasts; for Incorporated 3H-thymidine: 15 h incubation then 6 h 3H-thymidine, mean ± SD, 4 cases per group
Experimental: Fibroblast cell strains, Balb/3T3 cells (purchased from ATCC) were inoculated into a 96-well culture plate at-5×10^3 cells/well, 100 μl of 10% calf serum-containing Dulbecco Modified Eagle Medium (hereinafter referred to as DME) was added and incubated at. 37 uC for 24 hours in an incubator. Then, the culture medium was removed and the cells were washed. One hundred μl of lowered serum medium (0.2% calf serum-containing DME) Was added to the wells and incubation was continued for another 3 days. L-lysyl-glycyl-L-histidine obtained in Example 1 was added thereto at 10 μl/well and incubation was performed for 15 hours. The culture medium contains a trace amount of Cu2+, and a part of L-lysyl-glycyl-L-histidine may form copper complexes. The 3H-thymidine was added to be 74 KBq/ml and incubation was performed for 6 hours. After completion of the incubation, the medium was removed, the cells were collected and the amount of 3H-thymidine incorporated in the cells was determined.

How did the “cell proliferation promoting activity” value (10^-6 to 10^-3 M, conclusion from Table 1) turn out when `NCCCC[C@H](N)C(=O)NCC(=O)N[C@@H](Cc1c[nH]cn1)C(=O)O` [L-lysyl-glycyl-L-histidine] (H-Lys-Gly-His-OH) was run?
The value was “dose-dependent cell proliferation promoting activity”.

And the “Incorporated 3H-thymidine” value (Dose 10^-3 M)?
Its value is 7719.5 ± 1246.8 cpm.

And the “Incorporated 3H-thymidine” value (Dose 10^-4 M)?
The value was 4889.8 ± 495.1 cpm.

What about the “Incorporated 3H-thymidine” value (Dose 10^-5 M) of the same molecule?
Its value is 1371.8 ± 249.1 cpm.

And the “Incorporated 3H-thymidine” value (Dose 10^-6 M)?
Its value is 1406.5 ± 470.5 cpm.
